Reference: the NIST ThermoML archive (doi:10.1021/je700193w)

Tests used:
[1] = 101.33 kPa, Liquid
[2] = xn = mol fraction of the nth substance listed; conditions: 101 kPa, Liquid
[3] = excess molar enthalpy (molar enthalpy of mixing); xn = mol fraction of the nth substance listed; conditions: 101 kPa, Liquid

CC(C)CO [2-methyl-1-propanol]
[1]
Conditions	mass density [kg/m3]	speed of sound [m/s]
283.15 K	809.36	1238.7
298.15 K	798.03	1188
303.15 K	794.17	1174.3
313.15 K	786.1	1138
323.15 K	777.85	1108.2

CC(C)(C)O [2-methylpropan-2-ol]
[1]
Conditions	mass density [kg/m3]	speed of sound [m/s]
303.15 K	775.75	1101.9
313.15 K	765.05	1056.4
323.15 K	754.12	1015.9

C=C1CCC2CC1C2(C)C (stereo not drawn) [β-pinene]
[1]
Conditions	mass density [kg/m3]	speed of sound [m/s]
283.15 K	879.07	1354.7
298.15 K	867.11	1295.1
303.15 K	863.17	1278.6
313.15 K	854.87	1236.3
323.15 K	846.75	1200.7

C=C1CCC2CC1C2(C)C (stereo not drawn) [β-pinene] + CC(C)(C)O
Conditions	excess molar enthalpy [kcal/mol]	mass density [kg/m3]	speed of sound [m/s]
[2], 303.15 K, x1 = 0.0534	–	782.04	1110
[2], 303.15 K, x1 = 0.1048	–	787.79	1118.6
[2], 303.15 K, x1 = 0.2017	–	798.21	1135.6
[2], 303.15 K, x1 = 0.2814	–	806.31	1150.6
[2], 303.15 K, x1 = 0.4041	–	817.92	1173.7
[2], 303.15 K, x1 = 0.5042	–	826.75	1192.6
[2], 303.15 K, x1 = 0.6025	–	834.76	1210.5
[2], 303.15 K, x1 = 0.7042	–	842.46	1228.3
[2], 303.15 K, x1 = 0.8048	–	849.62	1244.8
[2], 303.15 K, x1 = 0.9007	–	856.11	1260.2
[2], 303.15 K, x1 = 0.9495	–	859.38	1268.7
[2], 313.15 K, x1 = 0.0561	–	771.94	1066.4
[2], 313.15 K, x1 = 0.108	–	777.84	1076
[2], 313.15 K, x1 = 0.2041	–	788.5	1094.3
[2], 313.15 K, x1 = 0.2996	–	798.32	1112.7
[2], 313.15 K, x1 = 0.4028	–	808.25	1132.3
[2], 313.15 K, x1 = 0.5039	–	817.37	1151
[2], 313.15 K, x1 = 0.5964	–	825.06	1167.1
[2], 313.15 K, x1 = 0.6957	–	832.77	1183.8
[2], 313.15 K, x1 = 0.7979	–	840.16	1201.1
[2], 313.15 K, x1 = 0.893	–	846.86	1216.7
[2], 313.15 K, x1 = 0.9475	–	850.67	1226.2
[2], 323.15 K, x1 = 0.0554	–	761.34	1027.2
[2], 323.15 K, x1 = 0.1025	–	766.94	1036.7
[2], 323.15 K, x1 = 0.2016	–	–	1056.6
[2], 323.15 K, x1 = 0.2032	–	778.49	–
[2], 323.15 K, x1 = 0.3022	–	788.82	1076.4
[2], 323.15 K, x1 = 0.3988	–	798.4	1095.2
[2], 323.15 K, x1 = 0.5053	–	808.25	1115.2
[2], 323.15 K, x1 = 0.5996	–	816.33	1132.3
[2], 323.15 K, x1 = 0.7001	–	824.27	1149.5
[2], 323.15 K, x1 = 0.7941	–	831.23	–
[2], 323.15 K, x1 = 0.799	–	–	1165.8
[2], 323.15 K, x1 = 0.8861	–	–	1180.1
[2], 323.15 K, x1 = 0.8905	–	838.16	–
[2], 323.15 K, x1 = 0.9367	–	–	1188.6
[2], 323.15 K, x1 = 0.9453	–	842.1	–
[3], 303.15 K, x1 = 0.0529	0.0559	–	–
[3], 303.15 K, x1 = 0.109	0.102	–	–
[3], 303.15 K, x1 = 0.2159	0.162	–	–
[3], 303.15 K, x1 = 0.3175	0.192	–	–
[3], 303.15 K, x1 = 0.4299	0.198	–	–
[3], 303.15 K, x1 = 0.5331	0.201	–	–
[3], 303.15 K, x1 = 0.6229	0.194	–	–
[3], 303.15 K, x1 = 0.7198	0.175	–	–
[3], 303.15 K, x1 = 0.8249	0.15	–	–
[3], 303.15 K, x1 = 0.9096	0.114	–	–
[3], 303.15 K, x1 = 0.9686	0.0566	–	–
[3], 313.15 K, x1 = 0.0529	0.0538	–	–
[3], 313.15 K, x1 = 0.109	0.104	–	–
[3], 313.15 K, x1 = 0.2159	0.179	–	–
[3], 313.15 K, x1 = 0.3175	0.217	–	–
[3], 313.15 K, x1 = 0.4299	0.229	–	–
[3], 313.15 K, x1 = 0.5331	0.238	–	–
[3], 313.15 K, x1 = 0.6229	0.235	–	–
[3], 313.15 K, x1 = 0.7198	0.22	–	–
[3], 313.15 K, x1 = 0.8249	0.184	–	–
[3], 313.15 K, x1 = 0.9096	0.139	–	–
[3], 313.15 K, x1 = 0.9686	0.0621	–	–
[3], 323.15 K, x1 = 0.0529	0.102	–	–
[3], 323.15 K, x1 = 0.109	0.141	–	–
[3], 323.15 K, x1 = 0.2159	0.201	–	–
[3], 323.15 K, x1 = 0.3175	0.236	–	–
[3], 323.15 K, x1 = 0.4299	0.251	–	–
[3], 323.15 K, x1 = 0.5331	0.263	–	–
[3], 323.15 K, x1 = 0.6229	0.262	–	–
[3], 323.15 K, x1 = 0.7198	0.248	–	–
[3], 323.15 K, x1 = 0.8249	0.199	–	–
[3], 323.15 K, x1 = 0.9096	0.147	–	–
[3], 323.15 K, x1 = 0.9686	0.0528	–	–
